How the values were obtained:
EHMT1 = biological target: T1, EHMT1 (Homo sapiens, UniProt Q9H9B1); test: EHMT1 enzyme assay on peptide substrate (EHMT1 PEP); format: biochemical; conditions: Table VI; read-out: EHMT1 PEP IC50
T1 sequence (Q9H9B1 1-1298): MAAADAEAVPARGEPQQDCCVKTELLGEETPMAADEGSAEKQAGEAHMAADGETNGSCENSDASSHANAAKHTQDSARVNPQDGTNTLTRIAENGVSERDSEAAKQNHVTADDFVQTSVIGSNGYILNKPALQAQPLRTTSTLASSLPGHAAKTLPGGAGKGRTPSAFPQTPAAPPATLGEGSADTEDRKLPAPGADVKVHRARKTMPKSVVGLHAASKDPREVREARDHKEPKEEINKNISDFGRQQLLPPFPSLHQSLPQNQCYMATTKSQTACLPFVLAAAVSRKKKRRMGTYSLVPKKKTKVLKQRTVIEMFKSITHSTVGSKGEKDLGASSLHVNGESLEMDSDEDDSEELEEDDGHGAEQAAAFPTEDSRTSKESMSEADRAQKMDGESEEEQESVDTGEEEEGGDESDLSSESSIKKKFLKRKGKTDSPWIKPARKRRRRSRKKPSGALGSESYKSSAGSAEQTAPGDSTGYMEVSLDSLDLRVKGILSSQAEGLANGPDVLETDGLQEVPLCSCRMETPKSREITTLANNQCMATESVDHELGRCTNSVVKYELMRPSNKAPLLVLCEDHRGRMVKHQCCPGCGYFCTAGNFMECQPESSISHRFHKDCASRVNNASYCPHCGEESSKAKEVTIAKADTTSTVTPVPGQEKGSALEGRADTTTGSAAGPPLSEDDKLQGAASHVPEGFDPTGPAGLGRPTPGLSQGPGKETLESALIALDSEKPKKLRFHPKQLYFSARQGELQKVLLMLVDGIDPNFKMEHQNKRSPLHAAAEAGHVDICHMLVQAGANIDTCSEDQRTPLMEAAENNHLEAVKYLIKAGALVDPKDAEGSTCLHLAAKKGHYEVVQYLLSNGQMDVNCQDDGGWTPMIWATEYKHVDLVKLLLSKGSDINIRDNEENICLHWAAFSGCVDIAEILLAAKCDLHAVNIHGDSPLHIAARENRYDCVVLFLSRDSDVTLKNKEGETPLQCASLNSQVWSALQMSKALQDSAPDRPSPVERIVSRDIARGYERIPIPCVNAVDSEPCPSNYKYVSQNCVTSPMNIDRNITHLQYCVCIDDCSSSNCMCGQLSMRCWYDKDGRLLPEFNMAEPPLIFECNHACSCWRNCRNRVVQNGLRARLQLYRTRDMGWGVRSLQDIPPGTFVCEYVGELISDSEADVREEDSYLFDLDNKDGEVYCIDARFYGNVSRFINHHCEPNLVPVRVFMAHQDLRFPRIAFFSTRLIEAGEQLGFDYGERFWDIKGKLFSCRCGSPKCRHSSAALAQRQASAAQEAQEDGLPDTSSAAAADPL

human EHMT2 913-1193 = biological target: T2, human EHMT2 913-1193 (Homo sapiens, UniProt Q96KQ7); test: EHMT2 enzyme assay on histone peptide substrate (EHMT2 PEP); format: biochemical; conditions: Table VI; read-out: EHMT2 PEP IC50
T2 construct: recombinant purified human EHMT2 913-1193, Viva; purchased Viva
T2 sequence (Q96KQ7 913-1193): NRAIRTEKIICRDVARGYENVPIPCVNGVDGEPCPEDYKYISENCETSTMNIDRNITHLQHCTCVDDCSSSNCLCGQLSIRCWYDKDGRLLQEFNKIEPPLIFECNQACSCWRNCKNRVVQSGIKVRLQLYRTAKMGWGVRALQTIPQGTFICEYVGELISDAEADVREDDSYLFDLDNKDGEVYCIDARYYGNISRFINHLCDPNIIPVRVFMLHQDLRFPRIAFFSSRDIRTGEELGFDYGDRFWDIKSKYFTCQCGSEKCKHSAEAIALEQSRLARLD
Outline: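 Radiometric methyltransferase assay: 0.031 nM EHMT2 913-1193 preincubated 30 min with compound (10-point 3-fold series, top final 50 μM, 2% DMSO) in 20 mM Bicine pH 7.5, 1 mM TCEP. Biotinylated histone peptide methylated with ^3H-SAM for 60 min at room temperature, quenched with unlabeled SAM, captured on streptavidin Flashplates and counted.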

Row | Compound | IC50 (EHMT1) | IC50 (human EHMT2 913-1193)
1 | COc1cc(NC2CCNCC2)ncc1OCC1CCN(C)C1 (stereo not shown) [Compound 604] | 0.1 to 1 µM | 0.1 to 1 µM
2 | COc1nc(NC2CCNCC2)ncc1OCC1CCN(C)C1 (stereo not shown) [Compound 605] | > 10 µM | > 10 µM
3 | CCN1CC(COc2cc(Nc3nc(C)cc4[nH]ncc34)ncc2OC)C1 [Compound 607] | < 0.1 µM | 0.1 to 1 µM
4 | CNc1cc(C)nc(Nc2cc(OCCCN3CCCC3)n3cnnc3c2)n1 [Compound 628] | > 10 µM | > 10 µM
5 | COc1cc(NC2CCNCC2)ncc1OCC1CCNC1 (stereo not shown) [Compound 629] | < 0.1 µM | 0.1 to 1 µM
6 | CCc1nc(NC2CCNCC2)ncc1OCC1CCN(C)C1 (stereo not shown) [Compound 630] | > 10 µM | > 10 µM
7 | CCc1nc(NC2CCNCC2)ncc1OCC1CN(C(C)C)C1 [Compound 631] | > 10 µM | > 10 µM
8 | CN1CCC(Nc2ncc(OCC3CCN(C)C3)cn2)CC1 (stereo not shown) [Compound 632] | > 10 µM | > 10 µM
9 | CN1CCC(COc2cnc(N(C)C3CCNCC3)nc2)C1 (stereo not shown) [Compound 633] | > 10 µM | > 10 µM
10 | COc1cc(N(C)C2CCNCC2)ncc1OCC1CCN(C)C1 (stereo not shown) [Compound 634] | 0.1 to 1 µM | 0.1 to 1 µM
11 | COc1cc(N(C)C2CCNCC2)ncc1OCC1CCN(C)C1 (stereo not shown) [Compound 635] | 1 to 10 µM | 1 to 10 µM
12 | CC(C)N1CC(COc2cnc(NC3CCNCC3)nc2)C1 [Compound 636] | > 10 µM | > 10 µM
13 | CC(C)N1CC[C@@H](COc2cnc(N(C)C3CCNCC3)nc2)C1 [Compound 637] | > 10 µM | > 10 µM
14 | COc1cnc(Nc2cccn3cncc23)cc1OCCCN1CCCC1 [Compound 638] | > 10 µM | > 10 µM
15 | COc1cnc(NC(=O)/C=C/CN(C)C)cc1OCCCN1CCCC1 [Compound 640] | > 10 µM | > 10 µM
16 | CNc1cc(C)nc(Nc2cnc(OC)c(OC[C@@H]3CCNC3)c2)n1 [Compound 641] | < 0.1 µM | < 0.1 µM
17 | COc1cc(Nc2ccc3[nH]ncc3c2)ncc1OCCCN1CCCC1 [Compound 643] | > 10 µM | > 10 µM
18 | CNc1cc(C)nc(Nc2ccc(OC)c(CNCCN3CCCC3)c2)n1 [Compound 644, 2-N-[4-methoxy-3-([[2-(pyrrolidin-1-yl)ethyl]amino]methyl)phenyl]-4-N,6-dimethylpyrimidine-2,4-diamine] | < 0.1 µM | < 0.1 µM
19 | CNc1cc(C)nc(Nc2ccc(OC)c(CN(C)CCN3CCCC3)c2)n1 [Compound 645] | 1 to 10 µM | > 10 µM
20 | CCN1CCC(NCc2cc(Nc3nc(C)cc(NC)n3)ccc2OC)C1 (stereo not shown) [Compound 646] | 1 to 10 µM | 1 to 10 µM
21 | CCN1CC(NCc2cc(Nc3nc(C)cc(NC)n3)ccc2OC)C1 [Compound 647] | 1 to 10 µM | > 10 µM
22 | COc1cc(Nc2ccc3[nH]ncc3n2)ncc1OCCCN1CCCC1 [Compound 648] | 1 to 10 µM | 1 to 10 µM
23 | CCN1CC([C@H](C)Oc2cc(Nc3nc(C)cc(NC)n3)ccc2OC)C1 [Compound 649] | 0.1 to 1 µM | 0.1 to 1 µM
24 | CCN1CC(N(C)Cc2cc(Nc3nc(C)cc(NC)n3)ccc2OC)C1 [Compound 650] | > 10 µM | > 10 µM
25 | CCN1CCC(N(C)Cc2cc(Nc3nc(C)cc(NC)n3)ccc2OC)C1 (stereo not shown) [Compound 651] | 1 to 10 µM | > 10 µM
26 | COc1cc2c(C3CCN(C)CC3)c(F)c(C)nc2cc1OCCCN1CCCC1 [Compound 652] | < 0.1 µM | 0.1 to 1 µM
27 | COc1cnc(Nc2cccc3nccn23)nc1OCCCN1CCCC1 [Compound 654] | > 10 µM | > 10 µM

Row | Compound | IC50 (EHMT1) | IC50 (human EHMT2 913-1193)
28 | COc1cnc(Nc2cccc3[nH]ncc23)nc1OCCCN1CCCC1 [Compound 655] | > 10 µM | > 10 µM
29 | COc1cnc(Nc2cccc3nncn23)nc1OCCCN1CCCC1 [Compound 656] | > 10 µM | > 10 µM
30 | COc1cc2c(C3CCN(C)CC3)nc(C)nc2cc1OCCCN1CCCC1 [Compound 658] | 0.1 to 1 µM | 0.1 to 1 µM
31 | COc1cc2c(C3CCN(C(C)C)CC3)nc(C)nc2cc1OCCCN1CCCC1 [Compound 659] | 0.1 to 1 µM | 0.1 to 1 µM
32 | CCN1CC(COc2cc3nc(C)cc(C4CCN(C)CC4)c3cc2OC)C1 [Compound 660] | < 0.1 µM | < 0.1 µM
33 | CCN1CC(COc2cc3nc(C)cc(C4CCN(C(C)C)CC4)c3cc2OC)C1 [Compound 661] | < 0.1 µM | < 0.1 µM
34 | CCN1CC[C@@H](COc2cc3nc(C)cc(C4CCN(C)CC4)c3cc2OC)C1 [Compound 662] | < 0.1 µM | < 0.1 µM
35 | CCN1CC[C@@H](COc2cc3nc(C)cc(C4CCN(C(C)C)CC4)c3cc2OC)C1 [Compound 663] | < 0.1 µM | < 0.1 µM
36 | CCN1CC(COc2cc3nc(C)nc(C4CCN(C)CC4)c3cc2OC)C1 [Compound 664] | 1 to 10 µM | 1 to 10 µM
37 | CCN1CC(COc2cc3nc(C)nc(C4CCN(C(C)C)CC4)c3cc2OC)C1 [Compound 665] | 1 to 10 µM | 1 to 10 µM
38 | CCN1CC[C@@H](COc2cc(Nc3nc(C)cc(NCC4CCOCC4)n3)ccc2OC)C1 [Compound 667] | < 0.1 µM | 0.1 to 1 µM
39 | COc1cc2c(C3CCOCC3)cc(C)nc2cc1OCCCN1CCCC1 [Compound 668] | 0.1 to 1 µM | 0.1 to 1 µM
40 | COc1cc2c(C3CCN(C(C)C)CC3)cc(C)nc2nc1OCCCN1CCCC1 [Compound 670] | 0.1 to 1 µM | 0.1 to 1 µM
41 | CCc1cc(NC)nc(Nc2ccc(OC)c(OC[C@@H]3CCN(CC)C3)c2)n1 [Compound 671] | < 0.1 µM | 0.1 to 1 µM
42 | CCN1CC[C@@H](COc2cc(Nc3nc(NC)cc(C(C)C)n3)ccc2OC)C1 [Compound 672] | < 0.1 µM | < 0.1 µM
43 | CCN1CC[C@@H](COc2cc3nc(C)nc(C4CCN(C)CC4)c3cc2OC)C1 [Compound 673] | 0.1 to 1 µM | 0.1 to 1 µM
44 | CCN1CC[C@@H](COc2cc3nc(C)nc(C4CCN(C(C)C)CC4)c3cc2OC)C1 [Compound 674] | 1 to 10 µM | 1 to 10 µM
45 | CNc1cc(C)nc(Nc2cnc(OC)c(O)c2)n1 [Compound 676] | > 10 µM | > 10 µM
46 | COc1cc2c(C3CCN(C)CC3)cc(-c3cn[nH]c3)nc2cc1OCCCN1CCCC1 [Compound 677] | < 0.1 µM | < 0.1 µM
47 | COc1cc2c(C3CCN(C)CC3)cc(-c3cc[nH]n3)nc2cc1OCCCN1CCCC1 [Compound 678] | 0.1 to 1 µM | 0.1 to 1 µM
48 | COc1cc2c(C3CCOCC3)cc(-c3cn[nH]c3)nc2cc1OCCCN1CCCC1 [Compound 679] | 1 to 10 µM | 1 to 10 µM
49 | CNCCN(C)Cc1cc(Nc2nc(C)cc(NC)n2)ccc1OC [Compound 680] | 1 to 10 µM | 1 to 10 µM
50 | COc1cc2c(C3CCN(C)CC3)nc(-c3cn[nH]c3)nc2cc1OCCCN1CCCC1 [Compound 681] | 0.1 to 1 µM | 1 to 10 µM
51 | COCCN1CCC(c2cc(C)nc3cc(OCCCN4CCCC4)c(OC)cc23)CC1 [Compound 682] | < 0.1 µM | < 0.1 µM
52 | COc1cnc(Nc2ccc3[nH]nnc3c2)cc1OCCCN1CCCC1 [Compound 686] | > 10 µM | > 10 µM
53 | CCN1CC([C@@H](C)Oc2cc(Nc3nc(C)cc(NC)n3)ccc2OC)C1 [Compound 687] | 1 to 10 µM | 1 to 10 µM
